Key:
[1] = test system: PD-L expression in the melanoma cells; experiment: PD-L expression in melanoma cells; type: cell-based
From the text: In addition, we report a correlation between PD-L and ITK protein expression and also found a significant correlation between activated Akt and PD-L protein levels (data not shown). […] These observations are consistent with PI3K regulating PD-L expression, Akt or Erk activation and ITK protein levels (Davies, 2012; Jiang and Liu 2008 Biochim Biophys Acta 1784, 150-158; Parsa et al., 2007 Nat Med 13, 84-88)

TIE2 = target: T1, TIE2 (Homo sapiens, UniProt Q02763); experiment: cell-free kinase assay; type: biochemical; details: single inhibitor concentration
T1 construct: purchased Carna Biosciences
T1 sequence (Q02763 23-1124): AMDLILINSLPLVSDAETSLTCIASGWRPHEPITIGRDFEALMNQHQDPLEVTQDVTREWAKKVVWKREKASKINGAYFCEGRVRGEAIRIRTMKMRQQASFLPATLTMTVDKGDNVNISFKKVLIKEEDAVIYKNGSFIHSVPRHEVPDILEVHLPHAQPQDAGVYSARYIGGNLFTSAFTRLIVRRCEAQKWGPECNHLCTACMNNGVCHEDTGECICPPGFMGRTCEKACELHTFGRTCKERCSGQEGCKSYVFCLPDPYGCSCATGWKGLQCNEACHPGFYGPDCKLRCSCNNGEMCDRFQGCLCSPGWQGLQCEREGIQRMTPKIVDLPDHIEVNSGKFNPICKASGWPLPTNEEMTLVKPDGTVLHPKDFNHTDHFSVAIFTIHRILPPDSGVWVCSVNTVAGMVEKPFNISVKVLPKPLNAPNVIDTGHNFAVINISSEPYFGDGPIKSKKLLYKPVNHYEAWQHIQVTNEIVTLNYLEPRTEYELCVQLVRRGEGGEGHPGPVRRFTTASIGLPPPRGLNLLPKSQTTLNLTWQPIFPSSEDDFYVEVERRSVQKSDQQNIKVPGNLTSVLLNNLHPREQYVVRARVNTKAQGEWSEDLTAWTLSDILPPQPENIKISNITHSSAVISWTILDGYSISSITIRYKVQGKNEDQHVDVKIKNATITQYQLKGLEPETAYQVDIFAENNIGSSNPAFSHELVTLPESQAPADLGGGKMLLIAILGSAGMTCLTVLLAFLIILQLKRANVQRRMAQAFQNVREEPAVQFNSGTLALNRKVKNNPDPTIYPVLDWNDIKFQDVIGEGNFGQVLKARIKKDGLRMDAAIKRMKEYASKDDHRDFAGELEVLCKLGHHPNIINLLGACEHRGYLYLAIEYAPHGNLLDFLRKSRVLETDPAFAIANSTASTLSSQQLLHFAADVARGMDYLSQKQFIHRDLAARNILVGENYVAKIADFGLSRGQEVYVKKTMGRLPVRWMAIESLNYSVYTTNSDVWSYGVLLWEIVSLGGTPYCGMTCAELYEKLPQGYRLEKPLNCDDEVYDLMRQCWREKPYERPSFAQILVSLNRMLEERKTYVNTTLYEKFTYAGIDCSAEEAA
In short: (§1)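 Two inhibitor concentrations were assayed against every kinase in a 53-kinase cell-free panel.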

MST1 = target: T2, MST1 (Homo sapiens, UniProt Q13043); experiment: cell-free kinase assay; type: biochemical
T2 construct: purchased Carna Biosciences
T2 sequence (Q13043 1-487): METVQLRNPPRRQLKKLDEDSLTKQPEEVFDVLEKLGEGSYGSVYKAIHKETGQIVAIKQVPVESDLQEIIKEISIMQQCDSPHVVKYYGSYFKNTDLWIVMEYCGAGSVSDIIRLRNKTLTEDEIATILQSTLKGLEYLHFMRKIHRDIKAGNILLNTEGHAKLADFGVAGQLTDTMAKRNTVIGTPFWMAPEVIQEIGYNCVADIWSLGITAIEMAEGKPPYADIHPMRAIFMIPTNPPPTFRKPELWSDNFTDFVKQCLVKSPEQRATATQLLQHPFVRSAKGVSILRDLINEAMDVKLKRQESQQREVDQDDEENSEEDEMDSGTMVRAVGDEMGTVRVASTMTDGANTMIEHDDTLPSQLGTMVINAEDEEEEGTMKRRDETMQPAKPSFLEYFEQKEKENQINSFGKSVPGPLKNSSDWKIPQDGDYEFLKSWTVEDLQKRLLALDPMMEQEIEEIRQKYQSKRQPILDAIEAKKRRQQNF
In short: as §1

[2] = test system: RPMI 8322 (ITKHI) melanoma cell line; experiment: proliferation assay (cell counts); type: cell-based, Human; details: 50 nM
From the text: (§2) FIG. 4A-4E. Effects of ITK knockdown on proliferation and motility of melanoma cells. FIG. 4A) Western of lysates of VMM 39 containing each of the four shRNA constructs using rabbit monoclonal anti ITK (Y401). FIG. 4B) The four shRNA lentiviral constructs were used to transduce three melanoma cell lines, PMWK (ITKLO), VMM 39 (ITKHI), and RPMI 8322 (ITKHI). 50,000 cells were placed into each well of a 6 well plate, which was then counted 3, 5, and 6, or 7 days after plating to assess the proliferation rates of the different cell lines. FIG. 4C) Single Cell Motility assays were performed on three different melanoma cell lines, PMWK, VMM 39, and RPMI 8322. Each melanoma cell line was transduced with the four shRNA lentiviral constructs producing a total of 12 cell lines. 10,000 cells were plated on fibronectin coated glass bottom dishes. Pictures were taken once every 40 minutes for 16 hours. FIG. 4D) Cell cycle analysis of PMWK, VMM 39, and RPMI 8322 cells that have been transduced with various shRNAs. Cells were harvested after 3 hours of incubation with 5-ethynyl-2′-deoxyuridine (EdU). EdU incorporation and DNA content with FxCycle Violet were analyzed using flow cytometry. Illustrated in this panel are the percentages of cells in G0/G1 (low DNA and EdU content), S (high EdU and low-to-medium DNA content), and G2/M (Low EdU and high DNA content). FIG. 4E) Single-cell motility analysis of PMWK, VMM 39, and RPMI 8322 that have been transduced with various shRNAs. At least 50 cells were tracked for each cell line and the average motility rate was determined. […]
(§3) FIG. 5A-5C. […] Cells were trypsinized and counted using the Invitrogen Countess. […] The cells were counted with the Invitrogen Countess at 3, 5, and 6 or 7 days after plating to assess the proliferation rates of the different cell lines in the presence of BI 10N. […] Following 3 days of BI 10N treatment, the cells were incubated with EdU for 3 hours and were subsequently assessed for 5-ethynyl-2′-deoxyuridine (EdU) incorporation rate and DNA content with FxCycle Violet. […]

[3] = test system: PMWK (ITKLO) melanoma cell line; experiment: proliferation assay (cell counts); type: cell-based, Human; details: inhibitor as high as 150 nM
From the text: as §2, §3

[4] = test system: VMM 39 (ITKHI) melanoma cell line; experiment: proliferation assay (cell counts); type: cell-based, Human; details: 50 nM
From the text: as §2, §3

inhibition at 0.2 µM (TIE2): 8.2%
IC50 (MST1; Table 2, by Carna Biosciences): 26 nM
inhibition at 0.2 µM (MST1; single inhibitor concentration): 91.7%
Structure (SMILES): CC(C)C(C)CNCc1ccc2c(c1)[nH]/c(=N\C(=O)c1ccc(C3=CN=NC3)s1)n2CC(C)(C)O (stereo not shown) [BI 10N]
expression of PD-L [1]: did not change
increase in doubling time [2]: about 50%
effect on doubling time [3]: did not increase their doubling time
increase in doubling time [4]: about 50%

Source: patent US9649313B2, “Use of ITK inhibitors for the treatment of cancer” (The University of North Carolina at Chapel Hill, priority 2012, dated 2017)
